Results published in publication PMC3086245 (Emerging Infectious Diseases, 2010).

Legend:
[1] = test system: influenza viruses A (H1N1) isolates, H275Y on N1 NA protein; design: species or system influenza virus A (H1N1)
[2] = target: NA of oseltamivir-resistant influenza viruses A (H1N1) (ORVs) with H275Y (Influenza A virus (H1N1), UniProt E3JK96); assay type: biochemical

SMILES | susceptibility to oseltamivir (in words) [1] | sensitivity of ORVs to the drug (in words) [2]
CCOC(=O)C1=C[C@@H](OC(CC)CC)[C@H](NC(C)=O)[C@@H](N)C1 [Oseltamivir, oseltamivir] | resistant | 
CC(=O)N[C@H]1[C@H]([C@H](O)[C@H](O)CO)OC(C(=O)O)=C[C@@H]1N=C(N)N [Zanamivir, zanamivir] |  | sensitive
